Results on ten molecules are retold here after ChEMBL document CHEMBL3431459, “Roche carnitine palmitoyltransferase modulator screening data (supplementary data associated with the publication CHEMBL2216752)”.

Data set [1] can be described thus: SUPPLEMENTARY: PAMPA permeability assay. The format is physicochemical. Particulars: read-out: Permeability. For orientation: The PAMPA barrier holds no transporters, so it reflects passive diffusion.
The target of data set [2] is T1, Carnitine O-palmitoyltransferase 1, muscle isoform (Homo sapiens, UniProt Q92523).
T1 sequence (Q92523 whole entry): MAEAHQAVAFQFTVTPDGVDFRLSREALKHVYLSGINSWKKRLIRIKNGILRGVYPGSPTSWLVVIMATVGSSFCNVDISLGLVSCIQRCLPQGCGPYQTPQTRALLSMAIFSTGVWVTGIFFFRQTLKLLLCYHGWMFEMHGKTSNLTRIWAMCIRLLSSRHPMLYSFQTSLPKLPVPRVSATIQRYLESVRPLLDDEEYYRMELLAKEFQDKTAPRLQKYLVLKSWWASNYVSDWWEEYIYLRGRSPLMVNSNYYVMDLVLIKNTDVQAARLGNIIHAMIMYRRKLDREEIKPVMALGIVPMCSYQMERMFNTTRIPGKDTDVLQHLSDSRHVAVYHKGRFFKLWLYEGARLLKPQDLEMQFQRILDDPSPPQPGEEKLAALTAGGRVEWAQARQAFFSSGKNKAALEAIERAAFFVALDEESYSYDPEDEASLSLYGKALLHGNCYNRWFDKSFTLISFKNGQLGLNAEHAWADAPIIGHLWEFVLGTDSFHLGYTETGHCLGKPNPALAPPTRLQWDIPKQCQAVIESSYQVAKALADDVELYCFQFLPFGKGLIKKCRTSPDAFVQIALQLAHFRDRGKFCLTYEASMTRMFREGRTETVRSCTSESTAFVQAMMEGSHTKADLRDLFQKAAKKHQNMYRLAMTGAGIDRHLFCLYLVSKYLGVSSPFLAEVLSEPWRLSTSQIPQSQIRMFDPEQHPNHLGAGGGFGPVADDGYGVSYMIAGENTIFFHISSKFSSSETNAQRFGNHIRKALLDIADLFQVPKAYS
Briefly: SUPPLEMENTARY: Inhibition of Carnitine palmitoyltransferase 1, muscle isoform. The arrangement: species or system Muscle tissue.

Data set [3] is described as follows: SUPPLEMENTARY: Lyophilisation Solubility Assay (LYSA). The format is physicochemical. Particulars: read-out: Kinetic_solubility.
Data set [4] addresses T2, Carnitine O-palmitoyltransferase 2, mitochondrial (Homo sapiens, UniProt P23786).
T2 sequence (P23786 whole entry): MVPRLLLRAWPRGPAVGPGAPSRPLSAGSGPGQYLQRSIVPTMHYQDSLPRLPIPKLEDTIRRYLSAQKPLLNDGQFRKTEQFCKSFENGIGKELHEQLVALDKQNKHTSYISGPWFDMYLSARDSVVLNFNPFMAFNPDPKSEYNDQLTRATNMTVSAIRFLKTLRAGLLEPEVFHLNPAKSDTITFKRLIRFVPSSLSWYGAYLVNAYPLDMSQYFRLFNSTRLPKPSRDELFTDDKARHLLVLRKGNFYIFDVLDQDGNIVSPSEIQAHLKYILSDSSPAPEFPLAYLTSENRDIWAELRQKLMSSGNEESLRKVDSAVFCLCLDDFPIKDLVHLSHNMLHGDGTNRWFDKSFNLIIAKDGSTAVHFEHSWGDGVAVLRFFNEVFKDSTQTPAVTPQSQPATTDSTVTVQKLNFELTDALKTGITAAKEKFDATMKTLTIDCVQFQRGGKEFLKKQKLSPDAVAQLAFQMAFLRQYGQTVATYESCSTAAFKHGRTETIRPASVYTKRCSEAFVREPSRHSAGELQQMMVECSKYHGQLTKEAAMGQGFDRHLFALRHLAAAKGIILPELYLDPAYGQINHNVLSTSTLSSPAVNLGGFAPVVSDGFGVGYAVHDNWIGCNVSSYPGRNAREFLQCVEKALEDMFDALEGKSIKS
Briefly: (§1) SUPPLEMENTARY: Inhibition of Carnitine palmitoyltransferase 2.

The target of data set [5] is T3, Carnitine O-palmitoyltransferase 2, mitochondrial (Rattus norvegicus, UniProt P18886).
T3 sequence (P18886 whole entry): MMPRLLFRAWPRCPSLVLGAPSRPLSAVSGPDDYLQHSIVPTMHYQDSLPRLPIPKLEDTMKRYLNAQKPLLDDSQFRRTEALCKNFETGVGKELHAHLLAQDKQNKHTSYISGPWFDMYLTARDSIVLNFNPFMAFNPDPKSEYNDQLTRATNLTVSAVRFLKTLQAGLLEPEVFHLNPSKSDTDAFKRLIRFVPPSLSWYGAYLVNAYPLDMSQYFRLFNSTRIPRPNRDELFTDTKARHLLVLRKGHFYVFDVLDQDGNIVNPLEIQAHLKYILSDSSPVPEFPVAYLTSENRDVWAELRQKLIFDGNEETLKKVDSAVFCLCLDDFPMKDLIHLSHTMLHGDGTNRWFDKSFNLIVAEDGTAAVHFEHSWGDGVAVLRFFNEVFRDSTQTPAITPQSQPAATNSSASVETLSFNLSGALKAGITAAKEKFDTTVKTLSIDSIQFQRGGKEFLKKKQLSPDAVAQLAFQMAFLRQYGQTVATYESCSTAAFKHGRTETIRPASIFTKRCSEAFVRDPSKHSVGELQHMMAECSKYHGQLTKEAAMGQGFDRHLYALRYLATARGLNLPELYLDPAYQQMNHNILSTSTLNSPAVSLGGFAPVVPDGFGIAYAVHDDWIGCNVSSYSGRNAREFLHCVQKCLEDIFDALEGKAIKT
The data set is described as §1.

Data set [6] in a line: SUPPLEMENTARY: Lipophilicity (log D) Determination by high-throughput shake-flask. It counts as physicochemical. Particulars: octanol/water.
Data set [7] deals with T4, Carnitine O-palmitoyltransferase 1, liver isoform (Homo sapiens, UniProt P50416).
T4 sequence (P50416 whole entry): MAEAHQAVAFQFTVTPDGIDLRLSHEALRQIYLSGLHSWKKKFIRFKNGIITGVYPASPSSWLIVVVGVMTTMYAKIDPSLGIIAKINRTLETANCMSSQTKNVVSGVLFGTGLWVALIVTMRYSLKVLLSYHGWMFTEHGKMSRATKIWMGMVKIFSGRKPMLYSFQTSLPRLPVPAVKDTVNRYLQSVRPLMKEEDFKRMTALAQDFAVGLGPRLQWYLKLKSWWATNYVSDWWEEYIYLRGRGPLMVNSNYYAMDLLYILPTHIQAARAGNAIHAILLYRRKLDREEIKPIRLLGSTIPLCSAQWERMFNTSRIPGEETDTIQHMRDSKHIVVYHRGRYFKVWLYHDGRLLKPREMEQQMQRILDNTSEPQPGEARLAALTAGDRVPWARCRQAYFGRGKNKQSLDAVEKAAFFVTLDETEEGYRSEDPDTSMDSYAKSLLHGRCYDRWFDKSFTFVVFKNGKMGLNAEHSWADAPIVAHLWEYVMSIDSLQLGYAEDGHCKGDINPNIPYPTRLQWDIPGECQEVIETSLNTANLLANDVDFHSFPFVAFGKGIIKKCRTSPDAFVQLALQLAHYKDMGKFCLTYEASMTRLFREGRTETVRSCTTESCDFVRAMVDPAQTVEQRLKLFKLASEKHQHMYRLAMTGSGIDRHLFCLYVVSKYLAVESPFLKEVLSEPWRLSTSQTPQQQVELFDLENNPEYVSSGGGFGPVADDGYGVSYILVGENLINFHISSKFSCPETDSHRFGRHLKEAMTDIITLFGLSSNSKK
Kind of data set: (§2) SUPPLEMENTARY: Inhibition of Carnitine palmitoyltransferase 1, liver isoform.

Data set [8] concerns the target T5, Carnitine O-palmitoyltransferase 1, liver isoform (Rattus norvegicus, UniProt P32198).
T5 sequence (P32198 whole entry): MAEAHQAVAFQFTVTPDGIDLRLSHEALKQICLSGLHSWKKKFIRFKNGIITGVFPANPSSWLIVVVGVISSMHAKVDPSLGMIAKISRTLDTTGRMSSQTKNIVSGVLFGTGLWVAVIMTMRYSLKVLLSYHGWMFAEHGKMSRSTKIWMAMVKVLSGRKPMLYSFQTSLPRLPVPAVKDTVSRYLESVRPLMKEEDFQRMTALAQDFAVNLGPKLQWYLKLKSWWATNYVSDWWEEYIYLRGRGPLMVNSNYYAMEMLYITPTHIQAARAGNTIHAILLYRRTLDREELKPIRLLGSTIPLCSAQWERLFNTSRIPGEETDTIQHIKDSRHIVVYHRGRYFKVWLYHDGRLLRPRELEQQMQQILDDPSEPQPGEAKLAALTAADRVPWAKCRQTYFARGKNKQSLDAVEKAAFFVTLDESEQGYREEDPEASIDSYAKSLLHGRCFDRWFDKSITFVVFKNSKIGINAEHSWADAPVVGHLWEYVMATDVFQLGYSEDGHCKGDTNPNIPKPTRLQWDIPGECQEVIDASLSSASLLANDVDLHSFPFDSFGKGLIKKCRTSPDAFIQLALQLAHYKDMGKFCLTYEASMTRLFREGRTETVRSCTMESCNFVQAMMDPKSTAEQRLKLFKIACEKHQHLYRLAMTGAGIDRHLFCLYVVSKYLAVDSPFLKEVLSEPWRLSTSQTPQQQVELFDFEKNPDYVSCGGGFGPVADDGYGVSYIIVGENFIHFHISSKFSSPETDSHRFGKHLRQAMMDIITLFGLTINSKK
The data set is described as §2.

pIC50: −log10 of the molar value. ≈ marks a conversion by molar mass, not a printed value.

For `O=C1Cc2ccc(-c3noc([C@H]4CCCCN4C(=O)COc4ccccc4)n3)cc2N1`, the Papp in data set [1] stood at 1.46 ×10⁻⁶ cm/s. Moreover, the pIC50 (in general, the negative decadic logarithm of the IC50, by convention in mol/L) is under 4.00 in data set [2]; under 4.00 in data set [4]; under 4.00 in data set [5]; 7.02 in data set [7]; 6.99 in data set [8]. Besides, the solubility kinetic in data set [3] came to 13 µg/mL (≈ 31.1 µM). Further, the logD (usually lipophilicity at a set pH, counting ionised and neutral species) in data set [6] came out at 2.63.
For the molecule `O=C(COc1ccccc1)N1CCCC[C@@H]1c1nc(-c2ccc3[nH]c(=O)[nH]c3c2)no1`, the Papp in data set [1] turned out to be 2.43 ×10⁻⁶ cm/s. Moreover, the negative logarithm of the IC50 (pIC50) was 4.88 in data set [2]; 4.16 in data set [4]; 4.82 in data set [5]; 7.45 in data set [7]; 6.32 in data set [8]. For the same molecule, the solubility kinetic in data set [3] worked out at 44 µg/mL (≈ 105 µM). The same molecule showed a pH-dependent lipophilicity (logD) in data set [6] of 2.51.
Regarding `O=C(Nc1ccc(-c2nnn[nH]2)cc1)c1nn(Cc2ccc(OC(F)F)cc2)c2ccc(F)cc12`, the Papp in data set [1] amounted to 0.46 ×10⁻⁶ cm/s. Further, the pIC50 is 4.57 in data set [2]; under 4.00 in data set [4]; under 4.00 in data set [5]; 6.68 in data set [7]; 5.54 in data set [8]. For the same molecule, the solubility kinetic in data set [3] was determined as 1 µg/mL (≈ 2.09 µM). The molecule further gave a log distribution coefficient (logD) in data set [6] of over 3.
Regarding `CN1CCN(C(=O)COc2ccccc2)[C@@H](c2nc(-c3cccc(C(F)(F)F)c3)n[nH]2)C1`, the Papp in data set [1] was 2.31 ×10⁻⁶ cm/s. For the same molecule, the pIC50 was under 4.00 in data set [2]; 4.02 in data set [4]; under 4.00 in data set [5]; 7.43 in data set [7]; 7.26 in data set [8]. Further, the solubility kinetic in data set [3] worked out at 81 µg/mL (≈ 182 µM). The pH-dependent lipophilicity (logD) in data set [6] worked out at 3.19.
For the molecule `O=C1Cc2cc(-c3noc([C@H]4CCCCN4C(=O)COc4ccccc4)n3)ccc2N1`, the Papp in data set [1] turned out to be 2.61 ×10⁻⁶ cm/s. Also, the pIC50 in data set [2] is 4.56; in data set [4], 4.37; in data set [5], 4.27; in data set [7], 7.88; in data set [8], 7.15. Further, the solubility kinetic in data set [3] stood at 14.5 µg/mL (≈ 34.7 µM). Moreover, in data set [6], the pH-dependent lipophilicity (logD) amounted to 2.93.
Take `COc1ccc(Cl)cc1S(=O)(=O)Nc1cccc(C#Cc2ccc(C(=O)O)cc2)c1`: in data set [1], the Papp worked out at 0.75 ×10⁻⁶ cm/s. For the same molecule, the pIC50 in data set [2] is 4.35; in data set [4], under 4.00; in data set [5], under 4.00; in data set [7], 6.65; in data set [8], 7.07. Besides, in data set [3], the solubility kinetic was found to be 8 µg/mL (≈ 18.1 µM). For the same molecule, the log distribution coefficient (logD) in data set [6] worked out at 2.38.
In the case of `O=C(COc1ccccc1)N1CCCC[C@@H]1c1nc(-c2ccc3[nH]cnc3c2)no1`, in data set [1], the Papp was 2.8 ×10⁻⁶ cm/s. Also, the pIC50 in data set [2] was under 4.00; in data set [4], 4.72; in data set [5], 4.72; in data set [7], 7.58; in data set [8] it was 6.97. For the same molecule, in data set [3], the solubility kinetic is 9.55 µg/mL (≈ 23.7 µM). In addition, the logD in data set [6] came out at 3.08.
Regarding `COc1ccc(Cl)cc1S(=O)(=O)N1CCOc2ccc(C(=O)Nc3ccc(-c4noc(=O)[nH]4)cc3)cc21`, the Papp in data set [1] was 0.93 ×10⁻⁶ cm/s. Moreover, the pIC50 in data set [2] is 6.87; in data set [4] it was under 4.00; in data set [5] it was under 4.00; in data set [7], 7.21; in data set [8], 6.82. In addition, the solubility kinetic in data set [3] amounted to 1 µg/mL (≈ 1.84 µM). Further, the logD in data set [6] amounted to 2.22.
`O=C1Cc2ccc(-c3n[nH]c([C@H]4CCCCN4C(=O)COc4ccccc4)n3)cc2N1`: the Papp in data set [1] is 3.29 ×10⁻⁶ cm/s. The negative logarithm of the IC50 (pIC50) in data set [2] was under 4.00; in data set [4], 4.40; in data set [5], 4.37; in data set [7] it was 6.68; in data set [8] it was 5.94. Besides, the solubility kinetic in data set [3] turned out to be 73 µg/mL (≈ 175 µM). In data set [6], this molecule returned a logD of 2.35.
As to `O=C(Nc1ccc(C(=O)O)c(F)c1)c1ccc2c(c1)N(S(=O)(=O)c1cccc(C(F)(F)F)c1)CC2`, the Papp in data set [1] was found to be 1.99 ×10⁻⁶ cm/s. For the same molecule, the negative logarithm of the IC50 (pIC50) in data set [2] is 4.37; in data set [4] it was 4.49; in data set [5], 4.14; in data set [7], 6.78; in data set [8] it was 7.10. The solubility kinetic in data set [3] came to 9 µg/mL (≈ 17.7 µM). Further, in data set [6], the log distribution coefficient (logD) came out at 2.77.
